Measured values from patent US12331042B2, “Compounds suitable for the treatment and prophylaxis of muscle wasting and other conditions” (priority 2019, dated 2025).
Entries after “also recorded” stand apart in the source; their conditions may differ.

How the values were obtained:
[1] = test system: porin, telethonin, MRPS-5, MuRF1, MuRF2, Tom20 expression; assay: Western blot analysis of diaphragm, CHF mice; type: in vivo
Description: For western blot analyses, frozen diaphragm was homogenized in relaxing buffer (90 mmol/L HEPES, 126 mmol/L potassium chloride, 36 mmol/L sodium chloride, 1 mmol/L magnesium chloride, 50 mmol/L EGTA, 8 mmol/L ATP, and 10 mmol/L creatine phosphate, pH 7.4) containing a protease inhibitor mix (Inhibitor Mix M, Serva, Heidelberg, Germany) and sonicated. Protein concentration of the supernatant was determined (bicinchoninic acid assay, Pierce, Bonn, Germany), and aliquots (5-20 μg) were separated by sodium dodecyl sulfate-polyacrylamide gel electrophoresis. Proteins were transferred to a polyvinylidene fluoride membrane and incubated overnight at 4° C. using the following primary antibodies: porin and telethonin (both 1/1000, Abcam, Cambridge, UK), MRPS-5 ( 1/500, Thermo Fisher, Rockford, IL, USA), MuRF1 and MuRF2 (both 1/1000; commercially available from Myomedix, Neckargemünd, Germany), and Tom20 (1:200, Santa Cruz Biotechnologies, Heidelberg, Germany). Membranes were subsequently incubated with a horseradish peroxidase conjugated secondary antibody, specific bands were visualized by enzymatic chemiluminescence (Super Signal West Pico, Thermo Fisher Scientific Inc., Bonn, Germany), and densitometry was quantified using a one-dimensional scan software package (Scanalytics Inc., Rockville, MD, USA). Measurements were normalized to the loading control GAPDH ( 1/30000; HyTest Ltd, Turku, Finland) or α-tubulin (1:1000, Santa Cruz Biotechnologies). All data are presented as fold change relative to sham.

MuRF1 E3 ligase activity = MuRF1 E3 ligase activity (Homo sapiens, UniProt Q969Q1); assay: Inhibition of MuRF1 E3 ligase activity (ubiquitination, Western blot); type: biochemical; conditions: 20-100 μmol/L compound, 1 h at 37° C., based on ubiquitination patterns
Chain of MuRF1 E3 ligase activity (Q969Q1 whole entry): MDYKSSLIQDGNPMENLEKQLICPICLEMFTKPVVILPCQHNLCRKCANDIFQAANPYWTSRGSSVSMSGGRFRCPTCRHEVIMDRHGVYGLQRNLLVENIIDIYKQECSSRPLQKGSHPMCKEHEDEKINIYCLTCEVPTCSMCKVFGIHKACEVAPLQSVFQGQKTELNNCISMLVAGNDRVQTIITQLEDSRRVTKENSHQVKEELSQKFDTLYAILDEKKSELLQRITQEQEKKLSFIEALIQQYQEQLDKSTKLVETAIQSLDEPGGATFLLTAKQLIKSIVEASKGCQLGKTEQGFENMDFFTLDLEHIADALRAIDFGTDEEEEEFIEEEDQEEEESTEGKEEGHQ
Description: Compounds were then assessed for effects on MuRF1 E3 ligase activity directed to titin or to MuRF1 itself (self-ubiquitination) by mixing 75 nmol/L UBE1 (Boston Biochem), 1 μmol/L UbcH5c (Boston Biochem), 100 μmol/L Ubiquitin, 4 mmol/L ATP, 100 nmol/L Titin A168-170 with 20-100 μmol/L of respective compounds. Reactions were started by addition of 220 nmol/L MuRF1, followed by 1 h at 37° C., SDS PAGE and Western blot analysis with MuRF1 and titin specific antibodies. All reactions also included 5% DMSO.

[2] = test system: diaphragm fiber bundle of MCT mice; assay: Contractile function of diaphragm fiber bundles, MCT mice; type: in vivo; conditions: MCT mice fed compound vs MCT; MCT impairs by around 20% vs sham
Description: (§1) To provide a direct functional assessment, the contractility in skeletal muscle fiber bundles, i.e. fibre bundle from the diaphragm of MCT mice and CIF mice, was measured as follows. A fiber bundle from the diaphragm was isolated to allow in vitro contractile function to be assessed using a length-controlled lever system (301B, Aurora Scientific Inc., Aurora, Canada), as described by Bowen et al., FASEB J, 2017, 31. Briefly, a muscle bundle was mounted vertically in a buffer-filled organ bath (˜22° C.), set at optimal length, and after 15 min was stimulated over a force-frequency protocol between 1-300 Hz (600 mA; 500 ms train duration; 0.25 ms pulse width). […] Shortening velocity was determined 10 ms after the first change in length and on the linear section of the transient (DMA software, Aurora Scientific). Force (N) was normalized to muscle cross-sectional area (CSA; cm^2) by dividing muscle mass (g) by the product of Lo (cm) and estimated muscle density (1.06), which allowed specific force in N/cm^2 to be calculated. Shortening velocity was normalized to optimal muscle length (in Lo/s), while power was calculated for each load as the product of shortening velocity and specific force (in W/cm^2).

[3] = test system: MuRF1, Nox 2, LC3 I/II, nitrotyrosine; assay: Protein expression and nitrotyrosine in muscle tissue of B16F10 mice; type: in vivo; conditions: tumor+compound vs tumor
Description: Protein expression of MuRF1, Nox 2 and LC3 I/II in muscle tissue of B16F10 mice was determined as described above for the MCT and CHF mice. In addition, the level of the reactive oxygen species marker nitrotyrosine was determined.

[4] = test system: eIF2B4, AS3MT, ATPAF1, GHDC, BAX protein levels in diaphragm; assay: Proteomic analysis (mass spectrometry) of diaphragm, MCT mice; type: in vivo; conditions: MCT + MyoMed-946/MCT, n=3 per group
Description: Proteins from frozen diaphragm samples in sham, MCT, and MCT+compound mice (n=3 per group) were powdered under liquid N2. Mass spectrometry was then performed at the DZHK mass spectrometry core facility at Bad Nauheim, as described in Konzer et al., Methods in molecular biology, 2013, 1005, 39-52. The relative ratios for MCT/sham and MCT+compound/MCT were determined, with only hits deemed to be differentially expressed and highly significant (P<0.01) further studied by Western blot.

[5] = test system: diaphragm fiber bundle of CHF mice; assay: Contractile function of diaphragm fiber bundles, CHF mice; type: in vivo
Description: as §1

[6] = test system: monocrotaline (MCT)-treated C57BL/6 mice; assay: Pulmonary hypertension mouse model, test series 2; type: in vivo; conditions: MCT+compound (0.1 weight-% in chow) vs MCT, 8 weeks
Description: The test series 2 were performed analogous to test series 1. Briefly, Three groups of mice were included in this study: 1) saline-treated mice (sham; n=10); 2) monocrotaline (MCT)-treated mice fed with normal chow (MCT; n=10); and 3) MCT-treated mice fed with MuRF1 inhibitor chow (MCT+compound; n=10 for each compound). 8 weeks old C57BL/6 mice were subcutaneously injected weekly with either MCT (600 mg/kg) or a matched volume of saline for 8 weeks. The MCT+compound group started receiving the inhibitor chow 1 week prior to the MCT injections, whereas the sham and MCT groups were fed an identical chow but without the addition of the selected compound. The compound concentration in the chow was 0.1 weight-%, resulting in a daily compound intake per mouse of about 3 mg. Body weight was recorded every week for each mouse. Mice were sacrificed after 8 weeks treatment. At sacrifice, examination and tissue analysis were performed as described in test series 1.

[7] = test system: citrate synthase and mitochondrial complex I; assay: Enzyme activity measurements in muscle tissue, B16F10 mice; type: in vivo; conditions: tumor+compound vs tumor
Description: The enzyme activities of citrate synthase and mitochondrial complex I in muscle tissue of B16F10 inoculated mice were determined as described above for the […] mice.

## Cc1cc(=O)oc2cc(OCc3ccc(C(=O)OCC(=O)NC(=O)NCc4ccco4)cc3)ccc12 [MyoMed-946, [2-(2-furylmethylcarbamoylamino)-2-oxo-ethyl] 4-[(4-methyl-2-oxo-chromen-7-yl)oxymethyl]benzoate]
[1]; CHF+compound
  TOM-20 expression: attenuated; also recorded: modest, but statistically significant, improvement
  mitochondrial porin expression: attenuated; also recorded: near-normal
[1]; CHF+compound vs CHF
  reduction of Mrps5 expression (Western blot): reversed
  up-regulation of MuRF1 expression: attenuated; also recorded: prevented
  up-regulation of MuRF2 expression: attenuated; also recorded: prevented
[1]; trend (P=0.08) in CHF group
  reduced expression of telethonin: attenuated; also recorded: not evident
MuRF1 E3 ligase activity
  inhibition of MuRF1 E3 ligase activity: significantly inhibit MuRF1 E3 ligase activity
[2]
  contractile dysfunction of the diaphragm (shortening velocity and power): essentially prevented
[3]
  downregulation of expression levels of LC3 I/II: attenuated; also recorded: not observed
  expression of Nox 2: attenuated; also recorded: significantly reduced
  tissue level of nitrotyrosine: attenuated; also recorded: significantly reduced
  up-regulation of MuRF1 expression: attenuated; also recorded: prevented
[4]
  Protein Ratio (log2), AS3MT: −0.31
  Protein Ratio (log2), ATPAF1: −0.68
  Protein Ratio (log2), BAX: −0.73
  Protein Ratio (log2), GHDC: −0.39
  Protein Ratio (log2), eIF2B4: 0.32
[5]; CHF mice fed compound vs control chow, week 10
  post-infarct diaphragm weakness (diaphragm myopathy): protected mice from such a post-infarct diaphragm weakness
[5]; CHF mice fed compound vs untreated CHF mice
  loss of diaphragm function and diaphragm maximal force due to chronic heart failure: significantly reduced
[6]
  right ventricle hypertrophy: attenuated; also recorded: attenuate the development of right ventricle hypertrophy
[7]
  citrate synthase enzyme activity: attenuated; also recorded: partially or complete restores
